Source: patent US20150005320A9, “COMPOUNDS FOR INFLAMMATION AND IMMUNE-RELATED USES” (Synta Pharmaceuticals Corp., priority 2003, published 2015)

What was measured:
IL-2 production [1] = assay: Inhibition of IL-2 production in PHA-activated Jurkat cells (ELISA); format: cell-based; conditions: Homo sapiens, 20 h
Description: Jurkat cells were placed in a 96 well plate (0.5 million cells per well in 1% FBS medium) then test compounds of this invention were added at different concentrations. After 10 minutes, the cells were activated with PHA (final concentration 2.5 μg/mL) and incubated for 20 hours at 37° C. under CO2. The final volume was 200 μL. Following incubation, the cells were centrifuged and the supernatants collected and stored at −70° C. prior to assaying for IL-2 production. A commercial ELISA kit (IL-2 Eli-pair, Diaclone Research, Besancon, France) was used to detect production of IL-2, from which dose response curves were obtained. The IC50 value was calculated as the concentration at which 50% of maximum IL-2 production after stimulation was inhibited versus a non-stimulation control.

CRAC ion channel [2] = target: CRAC ion channel (Rattus norvegicus, UniProt Q5M848); assay: Patch clamp inhibition of ICRAC current in RBL cells; format: cell-based; conditions: whole-cell patch clamp, read-out: IC50 (concentration which inhibits 50% of the ICRAC current)
CRAC ion channel (Rattus norvegicus, UniProt Q5M848), sequence (Q5M848 whole entry, the tested form may be a part): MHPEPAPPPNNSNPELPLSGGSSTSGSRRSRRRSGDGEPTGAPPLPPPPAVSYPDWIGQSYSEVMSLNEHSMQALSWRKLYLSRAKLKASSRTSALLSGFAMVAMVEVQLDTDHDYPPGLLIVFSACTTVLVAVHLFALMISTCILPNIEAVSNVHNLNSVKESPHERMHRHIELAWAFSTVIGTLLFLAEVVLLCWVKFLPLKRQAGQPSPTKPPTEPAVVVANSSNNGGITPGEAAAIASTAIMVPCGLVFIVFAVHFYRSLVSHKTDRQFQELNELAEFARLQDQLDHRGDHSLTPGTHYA
CRAC ion channel (Rattus norvegicus, UniProt Q5M848), sequence (P84903 23-685, further chain): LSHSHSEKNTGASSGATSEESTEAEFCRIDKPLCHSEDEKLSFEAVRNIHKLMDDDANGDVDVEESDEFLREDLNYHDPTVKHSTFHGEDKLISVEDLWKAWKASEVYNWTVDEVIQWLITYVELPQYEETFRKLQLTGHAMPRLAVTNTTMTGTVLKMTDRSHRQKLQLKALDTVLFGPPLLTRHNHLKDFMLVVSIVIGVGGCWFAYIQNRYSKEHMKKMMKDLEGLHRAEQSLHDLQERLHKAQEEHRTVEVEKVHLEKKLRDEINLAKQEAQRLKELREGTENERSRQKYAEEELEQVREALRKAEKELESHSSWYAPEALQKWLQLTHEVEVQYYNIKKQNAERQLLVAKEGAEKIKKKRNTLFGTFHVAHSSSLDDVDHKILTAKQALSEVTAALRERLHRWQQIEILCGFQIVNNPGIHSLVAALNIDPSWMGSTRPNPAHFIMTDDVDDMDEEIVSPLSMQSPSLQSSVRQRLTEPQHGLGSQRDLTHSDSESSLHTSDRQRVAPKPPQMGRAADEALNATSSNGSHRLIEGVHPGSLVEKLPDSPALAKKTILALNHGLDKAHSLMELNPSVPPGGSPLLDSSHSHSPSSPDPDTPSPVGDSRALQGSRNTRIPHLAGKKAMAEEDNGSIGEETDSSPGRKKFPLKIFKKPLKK
Description: In general, a whole cell patch clamp method was used to examine the effects of a compound of the invention on a channel that mediates Icrac. In such experiments, a baseline measurement was established for a patched cell. Then a compound to be tested was perfused (or puffed) to cells in the external solution and the effect of the compound on Icrac was measured. A compound that modulates Icrac (e.g., inhibits) is a compound that is useful in the invention for modulating CRAC ion channel activity.
Rat basophilic leukemia cells (RBL-2H3) were grown in DMEM media supplemented with 10% fetal bovine serum in an atmosphere of 95% air/5% CO2. Cells were seeded on glass coverslips 1-3 days before use.
Membrane currents of individual cells were recorded using the whole-cell configuration of the patch clamp technique with an EPC10 (HEKA Electronik, Lambrecht, Germany). Electrodes (2-5 MO in resistance) were fashioned from borosilicate glass capillary tubes (Sutter Instruments, Novato, Ca). The recordings were done at room temperature.
Cs-Glutamate 120 mM; CsCl 20 mM; CsBAPTA 10 mM; CsHEPES 10 mM; NaCl 8 mM; MgCl2 1 mM; IP3 0.02 mM; pH=7.4 adjusted with CsOH. (Shielded from light and kept on ice before experiment)
NaCl 138 mM; NaHEPES, 10 mM; CsCl 10 mM; CaCl2 10 mM; Glucose 5.5 mM; KC1-5.4 mM; KH2PO4 0.4 mM; Na2HPO4H2 0.3 mM at pH=7.4 adjusted with NaOH.
Each compound was diluted from a 10 mM stock in series using DMSO (10 μM, 3.2 μM, […], 316 nM, 100 nM, 32 nM). The final DMSO concentration was always kept at 0.1%.
ICRAC currents were monitored every 2 seconds using a 50 msec protocol, where the voltage was ramped from −100 mV to +100 mV. The membrane potential was held at 0 mV between the test ramps. In a typical experiment the peak inward currents would develop within 50-100 seconds. […]
The ICRAC current level was determined by measuring the inward current amplitude at −80 mV of the voltage ramp in an off-line analysis using MATLAB. The ICRAC current inhibition for each concentration was calculated using peak amplitude in the beginning of the experiment from the same cell. […]

CRAC ion channel [3] = assay: Patch clamp inhibition of ICRAC current in primary T cells; format: cell-based; conditions: primary human T cells, FIG. 1
Description: Primary T cells were obtained from human whole blood samples by adding 100 μL of RosetteSep® human T cell enrichment cocktail to 2 mL of whole blood. The mixture was incubated for 20 minutes at room temperature, then diluted with an equal volume of PBS containing 2% FBS. The mixture was layered on top of RosetteSep® DM-L density medium and then centrifuged for 20 minutes at 1200 g at room temperature.
The enriched T cells were recovered from the plasma/density medium interface, then washed with PBS containing 2% FBS twice, and used in patch clamp experiments following the procedure described for RBL cells.

IL-2 production [4] = assay: IL-2 production upon PMA/ionomycin stimulation in whole blood from dosed cynomolgus monkeys; format: in vivo; conditions: cynomolgus monkey, IV 5 mg/kg, 4 hours after dosing, FIG. 3
Description: (§1) 3 male non-naïve cynomolgus monkeys were fasted overnight prior to and for four (4) hours following each dose. Each monkey was given a single intravenous dose of the appropriate test compound followed by a 1 mL rinse of saline to flush the catheter. The dose was infused over one hour using calibrated syringe pumps. Following a one week washout, the same three monkeys were given a single oral gavage dose of the appropriate test compound dose formulation followed by a 10 mL flush with tap water. Following a second one week washout, the same three monkeys received a second oral dose of the appropriate test compound dose formulation followed by a 10 mL flush with tap water. Following a third one week washout, the same three monkeys received a third oral dose of the appropriate test compound dose formulation followed by a 10 mL flush with tap water. Prior to and at 1, 2, and 4 hours following each dose (measured from the start of dosing for IV doses), blood samples (3 mL/sample for Group 1 and 2 mL/sample for Groups 2 and 3) were drawn into tubes containing sodium heparin and stored at room temperature, and the concentration of the test compounds in each sample was measured. CsA was included as a positive control.

TNF-α production = TNF-α production upon PMA/ionomycin stimulation in whole blood from dosed cynomolgus monkeys; format: in vivo; conditions: cynomolgus monkey, IV 5 mg/kg, 4 hours after dosing, FIG. 4
Description: as §1

Row | Compound | IC50 (IL-2 production [1]; bins in nM) [nM] | IC50 (CRAC ion channel [2]) [nM] | also measured
1 | COc1ccc(C)cc1-c1ccc(NC(=O)c2cccc(F)c2F)cc1 [Compound 46, N-(2′-methoxy-5′-methyl-biphenyl-4-yl)-2,3-difluorobenzamide] | < 100 | – | –
2 | Cc1nnsc1C(=O)Nc1ccc(-c2cc(C(F)(F)F)ccc2Cl)cc1 [Compound 27, 4-Methyl-[1,2,3]thiadiazole-5-carboxylic acid (2′-chloro-5′-trifluoromethyl-biphenyl-4-yl)-amide] | – | 400 | –
3 | COc1ccc(Cl)cc1-c1ccc(NC(=O)c2cc(F)c(F)cc2F)cc1 [Compound 84, N-(2′-methoxy-5′-chloro-biphenyl-4-yl)-2,4,5-trifluorobenzamide] | – | 300 | –
4 | O=C(Nc1ccc(-c2cc(C(F)(F)F)ccc2C(F)(F)F)cc1)c1ccnc2ccccc12 [Compound 57, quinoline-4-carboxylic acid (2′,5′-bis-trifluoromethyl-biphenyl-4-yl)-amide] | – | – | IC50 (IL-2 production [1]; bin printed with mixed units nM and μM): 500 to 1000 nM
5 | COc1ccc(OC)c(-c2ccc(NC(=O)c3cccc(F)c3F)cc2)c1 [Compound 31, N-(2′,5′-Dimethoxy-biphenyl-4-yl)-2,3-difluoro-benzamide] | – | 100 | inhibition of ICRAC current in primary T cells compared with RBL cells (CRAC ion channel [3]): inhibits ICRAC current equally well in primary T cells as in RBL cells; IL-2 production after IV infusion (IL-2 production [4]): significantly inhibit; TNF-α production after IV infusion (TNF-α production): significantly inhibit
6 | Cc1nocc1C(=O)Nc1ccc(-c2cc(C(F)(F)F)ccc2C(F)(F)F)cc1 [Compound 48, 3-methylisoxazole-4-carboxylic acid (2′,5′-bis-trifluoromethyl-biphenyl-4-yl)-amide] | 100 to 500 | – | –
